In patent US9169307B2 (The Trustees of the University of Pennsylvania, priority 2005, dated 2015):
Like-named read-outs stand apart in the source and are kept apart here. Values belong to the compound of their own block, whether it stands above or below them. Bridges are numbered along the chain shown (N, C = ends). [ ]: non-standard residue; d: D form. Trp(5-F) = N[C@@H](Cc1c[nH]c2ccc(F)cc12)C(=O)O; Trp(6-F) = N[C@@H](Cc1c[nH]c2cc(F)ccc12)C(=O)O

Columns and labels:
[1] = tested on: activation of the complement system by immunocomplexes (C3b/iC3b deposition); assay: Complement inhibition assay (ELISA): inhibition of C3 fixation to ovalbumin-anti-ovalbumin complexes in normal human plasma; type: biochemical; conditions: for complement inhibitory activity (in words): at the concentrations tested; for amount of conjugate required to achieve the same inhibition as Ac-V4(1-methyl-W)/H9A: relative to Ac-V4(1-methyl-W)/H9A (SEQ ID NO:23); for Relative activity: Table 2, relative to the activity of compstatin (SEQ ID NO: 1); for Activity over compstatin: Table 1B, exemplary analogs described herein
Protocol: Complement activation inhibition was assessed by measuring the inhibition of C3 fixation to ovalbumin-anti-ovalbumin complexes in normal human plasma. Microtiter wells were coated with 50 μl of ovalbumin (10 mg/ml) for 2 hr at 25° C. (overnight at 4° C.). The wells were saturated with 200 μl of 10 mg/ml BSA for 1 hr at 25° C. and then a rabbit anti-ovalbumin antibody was added to form an immunocomplex by which complement can be activated. Thirty microliters of peptides at various concentrations were added directly to each well followed by 30 μl of a 1:80 dilution of human plasma. After 30 min incubation, bound C3b/iC3b was detected using a goat anti-human C3 HRP-conjugated antibody. Color was developed by adding ABTS peroxidase substrate and optical density measured at 405 nm.
The % inhibition was plotted against the peptide concentration, and the resulting data set was fit to the logistic dose-response function using Origin 7.0 software. […] IC50 values were obtained from the fitted parameters that achieved the lowest chi-square value.

[2] = tested on: activation of the complement system by immunocomplexes (C3b/iC3b deposition); conditions: cited from earlier work; for Activity over compstatin: Table 1A, previously described analogs (WO2004/026328)
C3 = C3 (Homo sapiens, UniProt P01024); assay: Isothermal titration calorimetry of the interaction of C3 with compstatin analogs; type: binding
Protocol: Isothermal titration calorimetry experiments were performed using the Microcal VP-ITC calorimeter (Microcal Inc, Northampton, Mass.). Protein concentrations of 3.5-5 μM and peptide concentrations of 80-200 μM were used for these experiments. All titrations were performed in PBS (10 mM phosphate buffer with 150 mM NaCl, pH 7.4). In each experiment, the target protein, C3, was loaded into the cell, and peptide was loaded into the syringe. All experiments were performed at 25° C. and for each experiment, 2-μl peptide injections were made into the cell containing the protein. In each experiment, the raw isotherms were corrected for the heats of dilution by subtracting the isotherms representing peptide injections into the buffer. The resulting isotherms were fit to various models within the Origin 7.0 software, and the model that achieved the lowest chi square value was deemed to be appropriate for the respective dataset. Binding affinity and entropy values were plotted against log P values.

[3] = tested on: alternative pathway-mediated erythrocyte lysis; conditions: cited from earlier work
[4] = relative to Ac-V4W/H9A (SEQ ID NO:5)

Sequence of C3 (P01024 23-1663): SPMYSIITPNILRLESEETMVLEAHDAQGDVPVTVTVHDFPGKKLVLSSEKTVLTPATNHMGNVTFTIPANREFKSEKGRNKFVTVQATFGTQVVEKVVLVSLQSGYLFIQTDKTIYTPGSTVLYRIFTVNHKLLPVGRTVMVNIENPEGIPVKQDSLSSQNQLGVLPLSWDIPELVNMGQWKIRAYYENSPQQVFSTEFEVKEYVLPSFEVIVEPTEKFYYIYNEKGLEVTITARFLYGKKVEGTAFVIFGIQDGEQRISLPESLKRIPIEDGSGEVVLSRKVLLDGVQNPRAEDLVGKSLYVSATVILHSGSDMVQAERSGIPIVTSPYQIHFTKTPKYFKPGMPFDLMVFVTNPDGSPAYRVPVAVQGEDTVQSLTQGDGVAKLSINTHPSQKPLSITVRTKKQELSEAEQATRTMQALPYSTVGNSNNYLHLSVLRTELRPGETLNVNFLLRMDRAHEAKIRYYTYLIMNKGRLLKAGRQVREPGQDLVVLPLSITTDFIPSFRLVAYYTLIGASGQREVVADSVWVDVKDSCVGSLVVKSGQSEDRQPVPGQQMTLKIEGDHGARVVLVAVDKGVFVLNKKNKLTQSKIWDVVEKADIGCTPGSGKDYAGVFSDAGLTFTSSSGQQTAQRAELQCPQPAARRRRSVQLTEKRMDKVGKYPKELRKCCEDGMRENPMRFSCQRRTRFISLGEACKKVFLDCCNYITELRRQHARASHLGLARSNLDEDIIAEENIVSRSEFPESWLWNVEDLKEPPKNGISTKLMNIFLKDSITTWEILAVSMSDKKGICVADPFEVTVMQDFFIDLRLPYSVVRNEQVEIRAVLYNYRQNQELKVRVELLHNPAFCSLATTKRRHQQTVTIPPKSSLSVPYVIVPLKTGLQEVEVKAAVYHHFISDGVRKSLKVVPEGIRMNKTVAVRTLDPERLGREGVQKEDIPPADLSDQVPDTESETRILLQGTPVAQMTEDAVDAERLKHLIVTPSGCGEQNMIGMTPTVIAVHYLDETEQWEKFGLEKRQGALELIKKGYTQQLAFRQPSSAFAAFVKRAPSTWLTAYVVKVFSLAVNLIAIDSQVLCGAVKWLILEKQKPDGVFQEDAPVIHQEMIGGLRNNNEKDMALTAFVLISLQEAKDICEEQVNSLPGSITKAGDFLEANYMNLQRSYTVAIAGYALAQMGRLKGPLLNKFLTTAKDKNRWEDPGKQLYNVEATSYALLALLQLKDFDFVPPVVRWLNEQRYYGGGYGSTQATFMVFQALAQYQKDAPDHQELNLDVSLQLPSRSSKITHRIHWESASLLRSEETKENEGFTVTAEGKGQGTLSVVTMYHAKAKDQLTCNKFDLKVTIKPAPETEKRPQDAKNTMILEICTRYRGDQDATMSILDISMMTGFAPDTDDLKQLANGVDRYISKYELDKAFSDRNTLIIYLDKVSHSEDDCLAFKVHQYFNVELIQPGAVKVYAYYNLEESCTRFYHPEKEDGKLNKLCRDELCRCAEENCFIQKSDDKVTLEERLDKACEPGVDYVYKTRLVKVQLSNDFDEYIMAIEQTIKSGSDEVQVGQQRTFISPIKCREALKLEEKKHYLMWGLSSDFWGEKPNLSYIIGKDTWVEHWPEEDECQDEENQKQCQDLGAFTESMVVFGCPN

ΔG (C3; Table 6, ITC, 25° C.): -9.5 kcal/mol | −TΔS (C3; Table 6, ITC, 25° C.): 4.8 kcal/mol | ΔΔG (C3; Table 6, relative to Wild-type): -0.1 kcal/mol | ΔΔH (C3; Table 6, relative to Wild-type): 3.87 kcal/mol | −TΔΔS (C3; Table 6, relative to Wild-type): -3.99 kcal/mol
Compound: CC[C@H](C)[C@H](NC(C)=O)C(=O)N[C@H]1CSSC[C@@H](C(=O)N[C@H](C(N)=O)[C@@H](C)O)NC(=O)[C@H](CCCNC(=N)N)NC(=O)[C@H](Cc2c[nH]cn2)NC(=O)[C@H](C)NC(=O)CNC(=O)[C@H](Cc2c[nH]c3ccccc23)NC(=O)[C@H](CC(=O)O)NC(=O)[C@H](CCC(N)=O)NC(=O)[C@H](Cc2ccc3ccccc3c2)NC(=O)[C@H](C(C)C)NC1=O [Ac-V4(2-Nal)/H9A]
IC50 ([1]; Table 5): 545 nM | Activity over compstatin [2]: 99 × more

Compound: CC[C@H](C)[C@H](N)C(=O)N[C@H]1CSSC[C@@H](C(=O)N[C@H](C(N)=O)[C@@H](C)O)NC(=O)[C@H](CCCN=C(N)N)NC(=O)[C@H](Cc2cnc[nH]2)NC(=O)[C@H](Cc2cnc[nH]2)NC(=O)CNC(=O)[C@H](Cc2c[nH]c3ccccc23)NC(=O)[C@H](CC(=O)O)NC(=O)[C@H](CCC(N)=O)NC(=O)[C@H](C(C)C)NC(=O)[C@H](C(C)C)NC1=O [Compstatin]
IC50 [3]: 12000 nM

Compound: Ac-ICV(1-Nal)QDWGAHRCT-COOH [Ac V4(1-Nal)/H9A −OH]
Activity over compstatin [2]: 30 × more

Compound: Ac-ICV(1MeW)QDWGAHRCTRLIEDICLPRWGCLWEDD-NH2 [Albumin-binding peptide-compstatin]
complement inhibitory activity (in words) [1]: active in inhibiting complement activation | amount of conjugate required to achieve the same inhibition as Ac-V4(1-methyl-W)/H9A [1]: seven-fold more conjugate was required

Compound: Ac-ICV(2-Igl)QDWGAHRCT-CONH2 [Ac-V4Igl/H9A]
Activity over compstatin [2]: 39 × more

Compound: Ac-ICV(2-Igl)QDWGAHRCT-COOH [Ac-V4Igl/H9A −OH]
Activity over compstatin [2]: 37 × more

Compound: Ac-ICV(2-Nal)QDWGAHRCT-COOH [Ac V4(2-Nal)/H9A −OH]
Activity over compstatin [2]: 39 × more

Compound: Ac-ICV(Bpa)QDWGAHRCT-COOH [Ac-V4(Bpa)/H9A −OH]
Activity over compstatin [2]: 49 × more | fold greater activity than compstatin ([2]; analogs disclosed in WO2004/026328): 49 fold

Compound: Ac-ICVDhtQDWGAHRCT-COOH [Ac-V4Dht/H9A −OH]
Activity over compstatin [2]: 5 × more

Compound: Ac-ICVVQDWGHHRCT-CONH2 [Ac-compstatin]
Activity over compstatin [2]: 3 × more

Compound: Ac-ICVYQDWGAHRCT-CONH2 (Ac-ICVYQDWGAHRCT-NH2; disulfide 2-12 (inferred)) [Ac-V4Y/H9A]
Activity over compstatin [2]: 19 × more

Compound: Ac-V4(1-methyl-W)/H9A-K-PEG 5000: Ac-V4(1-methyl-W)/H9A with C-terminal lysine whose side chain is linked to PEG 5000 (ICVWQDWGAHRCTK; N-acetyl; 1-methyl-Trp at 4; C-terminal Lys-PEG5000)
complement inhibitory activity (in words) [1]: active in inhibiting complement activation | amount of conjugate required to achieve the same inhibition as Ac-V4(1-methyl-W)/H9A [1]: seven-fold more conjugate was required

Compound: GICVWQDWGAHRCTN [G(−1)/V4(5-OH-W)/W7(5-OH-W)/H9A/N14]
IC50 ([1]; Table 2, expressed peptides): 33000 nM | Relative activity [1]: 1.6 | fold loss in activity / times less active compared to Ac-V4W/H9A [1, 4]: 27.5 fold

Compound: GICVWQDWGAHRCTN [G(−1)/V4W/H9A/N14, bacterially expressed compstatin analog]
Activity over compstatin [1]: 45 × more | IC50 ([1]; Table 2, expressed peptides): 1200 nM | Relative activity [1]: 45

Compound: H-GICV(5f-l-W)QD(5f-l-W)GAHRCTN-COOH (H-GICV[Trp(5-F)]QD[Trp(5-F)]GAHRCTN-OH; disulfide 3-13 (inferred)) [G(−1)/V4(5fW)/W7(5fW)/H9A/N14, bacterially expressed compstatin analog]
Activity over compstatin [1]: 112 × more | IC50 ([1]; Table 2, expressed peptides): 480 nM | Relative activity [1]: 112 | fold higher activity than Ac-V4W/H9A [1, 4]: 2.5 fold

Compound: H-GICV(6f-l-W)QD(6f-l-W)GAHRCTN-COOH (H-GICV[Trp(6-F)]QD[Trp(6-F)]GAHRCTN-OH; disulfide 3-13 (inferred)) [G(−1)/V4(6fW)/W7(6fW)/H9A/N14, bacterially expressed compstatin analog]
Activity over compstatin [1]: 126 × more | IC50 ([1]; Table 2, expressed peptides): 430 nM | Relative activity [1]: 126 | fold higher activity than Ac-V4W/H9A [1, 4]: 2.8 fold
